Data published in paper PMC10968680, “FHND004 inhibits malignant proliferation of multiple myeloma by targeting PDZ-binding kinase in MAPK pathway” (Aging (Albany NY), 2024).
Residue numbers refer to the chain shown, from its start.

Legend:
PDZ-binding kinase (PBK) [1] = biological target: T1, PDZ-binding kinase (PBK) (Homo sapiens, UniProt Q96KB5, D125A/N124A); assay: microscale thermophoresis (MST)
T1 sequence (Q96KB5 1-322 N124A/D125A): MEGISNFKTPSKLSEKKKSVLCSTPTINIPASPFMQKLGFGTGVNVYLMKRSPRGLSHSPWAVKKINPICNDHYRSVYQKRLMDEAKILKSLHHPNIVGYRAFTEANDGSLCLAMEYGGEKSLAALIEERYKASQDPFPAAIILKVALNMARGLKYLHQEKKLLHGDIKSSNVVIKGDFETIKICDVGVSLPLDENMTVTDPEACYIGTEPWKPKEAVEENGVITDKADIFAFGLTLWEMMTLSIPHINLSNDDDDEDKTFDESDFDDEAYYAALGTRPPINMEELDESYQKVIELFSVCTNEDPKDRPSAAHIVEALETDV

PDZ-binding kinase (PBK) [2] = biological target: T2, PDZ-binding kinase (PBK) (Homo sapiens, UniProt Q96KB5); assay: microscale thermophoresis (MST) with RED-NHS labelled purified PBK
T2 sequence (Q96KB5 1-322): T1 sequence (Q96KB5 1-322 N124A/D125A) with A124N, A125D

C=CC(=O)Nc1cc(Nc2nccc(-c3cn4c5c(cccc35)CCC4)n2)c(OC)cc1N(C)CCN(C)C [FHND004]
Kd (PDZ-binding kinase (PBK) [1]): 99.5 µM | Kd (PDZ-binding kinase (PBK) [2]): 3.1 µM
